In the experiment the target is Recombinant human ULK1 (1-649) (Homo sapiens (Human), UniProt O75385). Nature of the experiment: ULK1 ADP Glo kinase activity assay, new method (ULKtide peptide substrate). The conditions noted are these: 25° C., 40 minutes, read-out: ULK1 biochemical IC50. Put shortly:
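Kinase activity was read as ADP production (ADP-Glo, luminescence 30 min after detection reagent) following a 40-min, 25 °C reaction of Sf9-expressed GST-ULK1 (1-649) with ULKtide substrate and ATP. Compounds ran as 12-point series starting at 10 μM; four-parameter curve fitting versus DMSO wells gave IC50.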
On the technique in general: In ADP-Glo the light output rises with the ADP produced.

Chain of Recombinant human ULK1 (1-649) (O75385 1-649): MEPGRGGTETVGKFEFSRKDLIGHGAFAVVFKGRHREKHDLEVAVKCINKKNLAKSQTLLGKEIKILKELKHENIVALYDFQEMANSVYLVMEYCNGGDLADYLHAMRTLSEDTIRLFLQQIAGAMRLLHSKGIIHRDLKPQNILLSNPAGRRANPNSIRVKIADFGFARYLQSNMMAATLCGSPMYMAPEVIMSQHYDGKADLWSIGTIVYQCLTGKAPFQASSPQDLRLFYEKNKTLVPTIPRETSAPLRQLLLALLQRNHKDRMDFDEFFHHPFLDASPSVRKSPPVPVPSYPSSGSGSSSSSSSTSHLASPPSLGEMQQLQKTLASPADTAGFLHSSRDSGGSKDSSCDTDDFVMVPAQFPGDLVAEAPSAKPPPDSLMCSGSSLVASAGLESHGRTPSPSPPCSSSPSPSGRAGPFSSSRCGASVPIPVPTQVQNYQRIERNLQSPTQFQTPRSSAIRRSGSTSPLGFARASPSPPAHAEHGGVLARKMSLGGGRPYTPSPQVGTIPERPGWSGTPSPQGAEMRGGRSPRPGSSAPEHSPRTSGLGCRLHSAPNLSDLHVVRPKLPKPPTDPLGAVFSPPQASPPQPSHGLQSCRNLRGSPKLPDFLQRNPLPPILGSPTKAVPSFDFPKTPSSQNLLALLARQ

One may read the IC50 as the concentration that gives 50% inhibition. For `CCc1cc(N2C[C@@H]3C[C@H]2CN3C)ccc1Nc1ncc(C(F)(F)F)c(-c2cc3c(s2)C(=O)N(C2COC2)CCS3(=O)=O)n1` [Example 346, 7-(2-((2-Ethyl-4-((1S,4S)-5-methyl-2,5-diazabicyclo[2.2.1]heptan-2-yl)phenyl)amino)-5-(trifluoromethyl)pyrimidin-4-yl)-4-(oxetan-3-yl)-3,4-dihydrothieno[2,3-f][1,4]thiazepin-5(2H)-one 1,1-dioxide], the IC50 fell in the range of 5 to 10 nM. The figure for `C[C@@H]1CN(c2ccc(Nc3ncc(C(F)(F)F)c(-c4cc5c(s4)C(=O)N(C4CC4)CCS5(=O)=O)n3)c(C3CC3)c2)C[C@H](C)N1C` [Example 343, 4-Cyclopropyl-7-(2-((2-cyclopropyl-4-((3S,5R)-3,4,5-trimethylpiperazin-1-yl)phenyl)amino)-5-(trifluoromethyl)pyrimidin-4-yl)-3,4-dihydrothieno[2,3-f][1,4]thiazepin-5(2H)-one 1,1-dioxide] is not above 5 nM; for `CN1C2CC1CN(c1ccc(Nc3ncc(C(F)(F)F)c(-c4cc5c(s4)C(=O)N(C4CC4)CCS5(=O)=O)n3)c(C3CC3)c1)C2` [Example 339, 4-cyclopropyl-7-(2-((2-cyclopropyl-4-(6-methyl-3,6-diazabicyclo[3.1.1]heptan-3-yl)phenyl)amino)-5-(trifluoromethyl)pyrimidin-4-yl)-3,4-dihydrothieno[2,3-f][1,4]thiazepin-5(2H)-one 1,1-dioxide] it is not above 5 nM. For the compound `O=C1c2sc(-c3nc(Nc4ccc(N5C[C@H]6CC[C@@H](C5)N6)cc4C4CC4)ncc3C(F)(F)F)cc2S(=O)(=O)CCN1C1CC1` [Example 307, 7-(2-((4-((1R,5S)-3,8-diazabicyclo[3.2.1]octan-3-yl)-2-cyclopropylphenyl)amino)-5-(trifluoromethyl)pyrimidin-4-yl)-4-cyclopropyl-3,4-dihydrothieno[2,3-f][1,4]thiazepin-5(2H)-one 1,1-dioxide], the half-maximal inhibitory concentration (IC50) was not above 5 nM. With `CCc1cc(N2CCN(C)[C@@H](C)C2)ccc1Nc1ncc(C(F)(F)F)c(-c2cc3c(s2)C(=O)N(C2COC2)CCS3(=O)=O)n1` [Example 362, (S)-7-(2-((4-(3,4-dimethylpiperazin-1-yl)-2-ethylphenyl)amino)-5-(trifluoromethyl)pyrimidin-4-yl)-4-(oxetan-3-yl)-3,4-dihydrothieno[2,3-f][1,4]thiazepin-5(2H)-one 1,1-dioxide] the figure was not above 5 nM; with `CCc1cc(N2CCN(C)[C@@H](C)C2)ccc1Nc1ncc(C(F)(F)F)c(-c2cc3c(s2)C(=O)N(C2CC2)CCS3(=O)=O)n1` [Example 361, (S)-4-cyclopropyl-7-(2-((4-(3,4-dimethylpiperazin-1-yl)-2-ethylphenyl)amino)-5-(trifluoromethyl)pyrimidin-4-yl)-3,4-dihydrothieno[2,3-f][1,4]thiazepin-5(2H)-one 1,1-dioxide], not above 5 nM; with `O=C1c2sc(-c3nc(Nc4cc5c(cc4OC(F)(F)F)CNCC5)ncc3C(F)(F)F)cc2S(=O)(=O)CCN1C1CC1` [Example 273, 4-cyclopropyl-7-(2-((7-(trifluoromethoxy)-1,2,3,4-tetrahydroisoquinolin-6-yl)amino)-5-(trifluoromethyl)pyrimidin-4-yl)-3,4-dihydrothieno[2,3-f][1,4]thiazepin-5(2H)-one 1,1-dioxide], not above 5 nM. With `CCN1Cc2cc(C)c(Nc3ncc(C(F)(F)F)c(-c4cc5c(s4)C(=O)N(C)CCS5(=O)=O)n3)cc2C1` [Example 192, 7-(2-((2-ethyl-6-methylisoindolin-5-yl)amino)-5-(trifluoromethyl)pyrimidin-4-yl)-4-methyl-3,4-dihydrothieno[2,3-f][1,4]thiazepin-5(2H)-one 1,1-dioxide] the figure was not above 5 nM. With `O=C1NCCS(=O)(=O)c2cc(-c3nc(Nc4cc5c(cc4Cl)CNC5)ncc3C(F)(F)F)sc21` [Example 180, 7-(2-((6-chloroisoindolin-5-yl)amino)-5-(trifluoromethyl)pyrimidin-4-yl)-3,4-dihydrothieno[2,3-f][1,4]thiazepin-5(2H)-one 1,1-dioxide] the figure was not above 5 nM; with `CCc1cc(N2C[C@H]3C[C@@H]2CN3C)ccc1Nc1ncc(C(F)(F)F)c(-c2cc3c(s2)C(=O)N(C2COC2)CCS3(=O)=O)n1` [Example 347, 7-(2-((2-ethyl-4-((1R,4R)-5-methyl-2,5-diazabicyclo[2.2.1]heptan-2-yl)phenyl)amino)-5-(trifluoromethyl)pyrimidin-4-yl)-4-(oxetan-3-yl)-3,4-dihydrothieno[2,3-f][1,4]thiazepin-5(2H)-one 1,1-dioxide], not above 5 nM; with `O=C1c2sc(-c3nc(Nc4ccc(N5C[C@@H]6C[C@H]5CN6)cc4C4CC4)ncc3C(F)(F)F)cc2S(=O)(=O)CCN1C1COC1` [Example 310, 7-(2-((4-((1S,4S)-2,5-diazabicyclo[2.2.1]heptan-2-yl)-2-cyclopropylphenyl)amino)-5-(trifluoromethyl)pyrimidin-4-yl)-4-(oxetan-3-yl)-3,4-dihydrothieno[2,3-f][1,4]thiazepin-5(2H)-one 1,1-dioxide], not above 5 nM. `CN1CCS(=O)(=O)c2cc(-c3nc(Nc4cc5c(cc4C4CC4)CN(CCF)CC5)ncc3C(F)(F)F)sc2C1=O` [Example 236, 7-(2-((7-cyclopropyl-2-(2-fluoroethyl)-1,2,3,4-tetrahydroisoquinolin-6-yl)amino)-5-(trifluoromethyl)pyrimidin-4-yl)-4-methyl-3,4-dihydrothieno[2,3-f][1,4]thiazepin-5(2H)-one 1,1-dioxide]: the IC50 was not above 5 nM.

`CN1C2CC1CN(c1ccc(Nc3ncc(C(F)(F)F)c(-c4cc5c(s4)C(=O)N(C4COC4)CCS5(=O)=O)n3)c(C3CC3)c1)C2` [Example 349, 7-(2-((2-cyclopropyl-4-(6-methyl-3,6-diazabicyclo[3.1.1]heptan-3-yl)phenyl)amino)-5-(trifluoromethyl)pyrimidin-4-yl)-4-(oxetan-3-yl)-3,4-dihydrothieno[2,3-f][1,4]thiazepin-5(2H)-one 1,1-dioxide]: the IC50 was not above 5 nM. The figure for `CCc1cc(N2CCN(C)[C@H](C)C2)ccc1Nc1ncc(C(F)(F)F)c(-c2cc3c(s2)C(=O)N(C2CC2)CCS3(=O)=O)n1` [Example 360, (R)-4-cyclopropyl-7-(2-((4-(3,4-dimethylpiperazin-1-yl)-2-ethylphenyl)amino)-5-(trifluoromethyl)pyrimidin-4-yl)-3,4-dihydrothieno[2,3-f][1,4]thiazepin-5(2H)-one 1,1-dioxide] is not above 5 nM; for `Cc1cc2c(cc1Nc1ncc(C(F)(F)F)c(-c3cc4c(s3)C(=O)N(C)CCS4(=O)=O)n1)CCN(CC1COC1)C2` [Example 216, 4-methyl-7-(2-((7-methyl-2-(oxetan-3-ylmethyl)-1,2,3,4-tetrahydroisoquinolin-6-yl)amino)-5-(trifluoromethyl)pyrimidin-4-yl)-3,4-dihydrothieno[2,3-f][1,4]thiazepin-5(2H)-one 1,1-dioxide] it is not above 5 nM; for `CN1C[C@H]2C[C@@H]1CN2c1ccc(Nc2ncc(C(F)(F)F)c(-c3cc4c(s3)C(=O)N(C3COC3)CCS4(=O)=O)n2)c(C2CC2)c1` [Example 334, 7-(2-((2-cyclopropyl-4-((1R,4R)-5-methyl-2,5-diazabicyclo[2.2.1]heptan-2-yl)phenyl)amino)-5-(trifluoromethyl)pyrimidin-4-yl)-4-(oxetan-3-yl)-3,4-dihydrothieno[2,3-f][1,4]thiazepin-5(2H)-one 1,1-dioxide] it is not above 5 nM.

Regarding `CCc1cc(N2CCN(C)[C@@H](CO)C2)ccc1Nc1ncc(C(F)(F)F)c(-c2cc3c(s2)C(=O)N(C2COC2)CCS3(=O)=O)n1` [Example 409, (R)-7-(2-((2-Ethyl-4-(3-(hydroxymethyl)-4-methylpiperazin-1-yl)phenyl)amino)-5-(trifluoromethyl)pyrimidin-4-yl)-4-(oxetan-3-yl)-3,4-dihydrothieno[2,3-f][1,4]thiazepin-5(2H)-one 1,1-dioxide], the IC50 is not above 5 nM. With `CN1CCc2cc(Nc3ncc(C(F)(F)F)c(-c4cc5c(s4)C(=O)N(CC(F)(F)F)CCS5(=O)=O)n3)c(Cl)cc2C1` [Example 144, 7-(2-((7-chloro-2-methyl-1,2,3,4-tetrahydroisoquinolin-6-yl)amino)-5-(trifluoromethyl)pyrimidin-4-yl)-4-(2,2,2-trifluoroethyl)-3,4-dihydrothieno[2,3-f][1,4]thiazepin-5(2H)-one 1,1-dioxide], the concentration for half-maximal inhibition (IC50) was not above 5 nM.

With `O=C1c2sc(-c3nc(Nc4ccc(N5CC6(CNC6)C5)cc4C4CC4)ncc3C(F)(F)F)cc2S(=O)(=O)CCN1C1COC1` [Example 377, 7-(2-((2-Cyclopropyl-4-(2,6-diazaspiro[3.3]heptan-2-yl)phenyl)amino)-5-(trifluoromethyl)pyrimidin-4-yl)-4-(oxetan-3-yl)-3,4-dihydrothieno[2,3-f][1,4]thiazepin-5(2H)-one 1,1-dioxide], the IC50 was not above 5 nM. With `O=C1c2sc(-c3nc(Nc4cnc(N5CC6CC(C5)N6)cc4C4CC4)ncc3C(F)(F)F)cc2S(=O)(=O)CCN1C1COC1` [Example 384, 7-(2-((6-(3,6-diazabicyclo[3.1.1]heptan-3-yl)-4-cyclopropylpyridin-3-yl)amino)-5-(trifluoromethyl)pyrimidin-4-yl)-4-(oxetan-3-yl)-3,4-dihydrothieno[2,3-f][1,4]thiazepin-5(2H)-one 1,1-dioxide] the figure was not above 5 nM.

With `Cc1c(Nc2ncc(C(F)(F)F)c(-c3cc4c(s3)C(=O)N(C)CCS4(=O)=O)n2)cnn1C1CCNCC1` [Example 176, 4-methyl-7-(2-((5-methyl-1-(piperidin-4-yl)-1H-pyrazol-4-yl)amino)-5-(trifluoromethyl)pyrimidin-4-yl)-3,4-dihydrothieno[2,3-f][1,4]thiazepin-5(2H)-one 1,1-dioxide], the concentration for half-maximal inhibition (IC50) was more than 100 nM.
